Test results reported in US20090069356A1, “USE OF ANILINOPYRIMIDINES IN WOOD PROTECTION” (priority 2004, published 2009).
In brackets after ≈: the same amount, converted by molar mass.

Assays:
[1] = system: Aspergillus niger and A. carbonarius; conditions: vineyards; Tjamos et al., Journal of Phytopathology (2004); cited from earlier work
Humicola grisea MG 28 = test: Stick test on treated Scots Pine; type: cell-based; conditions: 3 weeks exposure
Excerpt: (§1) [table] […] GA medium was used as a less nutrient-rich alternative to PDA, in order to prevent the test fungi from bypassing the specific mode of action of anilinopyrimidines like cyprodinil, pyrimethanil and […].

[2] = system: Aspergillus niger CBS 554.65; test: Stick test on treated Scots Pine; type: cell-based; conditions: 3 weeks exposure
Excerpt: as §1

[3] = system: Coniophora puteana BAM 15; test: Stick test on treated Scots Pine; type: cell-based; conditions: 3 weeks exposure
Excerpt: as §1

[4] = system: Coriolus versicolor CTB 863A; test: Stick test on treated Scots Pine; type: cell-based; conditions: 3 weeks exposure
Excerpt: as §1

[5] = system: Chaetomium globosum ATCC 6205; test: Stick test on treated Scots Pine; type: cell-based; conditions: 3 weeks exposure
Excerpt: as §1

[6] = system: Cladosporium cladosporioides IHEM 3795; test: Stick test on treated Scots Pine; type: cell-based; conditions: 3 weeks exposure
Excerpt: as §1

[7] = system: Aureobasidium pullulans P 268; test: Stick test on treated Scots Pine; type: cell-based; conditions: 3 weeks exposure
Excerpt: as §1

[8] = system: Trichoderma sp. isol. MB test; test: Stick test on treated Scots Pine; type: cell-based; conditions: 3 weeks exposure
Excerpt: as §1

[9] = system: Trichoderma viride CBS 189.79; test: Stick test on treated Scots Pine; type: cell-based; conditions: 3 weeks exposure
Excerpt: as §1

[10] = system: Aspergillus niger CBS 554.65 (An); test: Poison plate assay; type: cell-based; conditions: CBS554, 168 h, evaluated after one week
[11] = system: Humicola grisea MG 28 (Hg); test: Poison plate assay; type: cell-based; conditions: 168 h, evaluated after one week
[12] = system: Chaetomium globosum CEB 1218.2 (Cg); test: Poison plate assay; type: cell-based; design: key: When no fungal growth was observed, the abbreviation “ng” was used; conditions: evaluated after one week
[13] = system: Aureobasidium pullulans P 268 (Ap1); test: Poison plate assay; type: cell-based; conditions: 168 h, evaluated after one week

**Q.** With COC(=O)Nc1nc2ccccc2[nH]1 [carbendazim] as the molecule, how does the “Control of Aspergillus spp. infection” value [1] read?
**A.** ineffective

**Q.** What does the source list for Cc1cc(C2CC2)nc(Nc2ccccc2)n1 [cyprodinil, 4-cyclopropyl-6-methyl-N-phenyl-2-pyrimidinamine]?
**A.** Threshold value, H. grisea (Humicola grisea MG 28; medium GA): 200-400 ppm; Threshold value, H. grisea (Humicola grisea MG 28; medium PDA): 800-1600 ppm; Threshold value, A. niger ([2]; medium GA): >6400 ppm; Threshold value, A. niger ([2]; medium PDA): >6400 ppm; Threshold value, C. puteana ([3]; medium GA): 3200-6400 ppm; Threshold value, C. puteana ([3]; medium PDA): >6400 ppm; Threshold value, C. versicolor ([4]; medium GA): >6400 ppm; Threshold value, C. versicolor ([4]; medium PDA): >6400 ppm; Threshold value, C. globosum ([5]; medium GA): 100-200 ppm; Threshold value, C. globosum ([5]; medium PDA): 1600-3200 ppm; Threshold value, C. cladosporioides ([6]; medium GA): 800-1600 ppm; Threshold value, C. cladosporioides ([6]; medium PDA): >6400 ppm; Threshold value, A. pullulans ([7]; medium GA): 3200-6400 ppm; Threshold value, A. pullulans ([7]; medium PDA): >6400 ppm; Threshold value, T. sp. ([8]; medium GA): >6400 ppm; Threshold value, T. sp. ([8]; medium PDA): >6400 ppm; Threshold value, T. viride ([9]; medium GA): >6400 ppm; Threshold value, T. viride ([9]; medium PDA): >6400 ppm; MIC ([10]; medium CDA): < 0.6 µg/mL; MIC ([10]; medium GA): < 0.6 µg/mL; MIC ([10]; medium GGA): < 0.6 µg/mL; MIC ([11]; medium CDA): 10 µg/mL (≈ 44.4 µM); MIC ([11]; medium GA): 10 µg/mL (≈ 44.4 µM); MIC ([11]; medium GGA): 20 µg/mL (≈ 88.8 µM); MIC value, Cg ([12]; medium CDA): ng; MIC value, Cg ([12]; medium GA): ng; MIC value, Cg ([12]; medium GGA): ng; MIC ([13]; medium CDA): 5 µg/mL (≈ 22.2 µM); MIC ([13]; medium GA): 10 µg/mL (≈ 44.4 µM); MIC ([13]; medium GGA): 5 µg/mL (≈ 22.2 µM)

**Q.** For CC#Cc1cc(C)nc(Nc2ccccc2)n1 [mepanipyrim, 4-methyl-6-(prop-1-ynyl)-N-phenyl-2-pyrimidinamine], which “Threshold value, H. grisea” value (Humicola grisea MG 28; medium GA) is on record?
**A.** 200-400 ppm

**Q.** And the “Threshold value, H. grisea” value (Humicola grisea MG 28; medium PDA)?
**A.** >6400 ppm

**Q.** What about the “Threshold value, A. niger” value ([2]; medium GA) of the same molecule?
**A.** >6400 ppm

**Q.** What about the “Threshold value, A. niger” value ([2]; medium PDA) of the same molecule?
**A.** 1600-3200 ppm

**Q.** What about the “Threshold value, C. puteana” value ([3]; medium GA) of the same molecule?
**A.** >6400 ppm

**Q.** And the “Threshold value, C. puteana” value ([3]; medium PDA)?
**A.** >6400 ppm

**Q.** And the “Threshold value, C. versicolor” value ([4]; medium GA)?
**A.** >6400 ppm

**Q.** What about the “Threshold value, C. versicolor” value ([4]; medium PDA) of the same molecule?
**A.** >6400 ppm

**Q.** What about the “Threshold value, C. globosum” value ([5]; medium GA) of the same molecule?
**A.** 200-400 ppm

**Q.** And the “Threshold value, C. globosum” value ([5]; medium PDA)?
**A.** >6400 ppm

**Q.** And the “Threshold value, C. cladosporioides” value ([6]; medium GA)?
**A.** >6400 ppm

**Q.** What about the “Threshold value, C. cladosporioides” value ([6]; medium PDA) of the same molecule?
**A.** >6400 ppm

**Q.** What about the “Threshold value, A. pullulans” value ([7]; medium GA) of the same molecule?
**A.** >6400 ppm

**Q.** What about the “Threshold value, A. pullulans” value ([7]; medium PDA) of the same molecule?
**A.** >6400 ppm

**Q.** What about the “Threshold value, T. sp.” value ([8]; medium GA) of the same molecule?
**A.** >6400 ppm

**Q.** And the “Threshold value, T. sp.” value ([8]; medium PDA)?
**A.** >6400 ppm

**Q.** What about the “Threshold value, T. viride” value ([9]; medium GA) of the same molecule?
**A.** >6400 ppm

**Q.** What about the “Threshold value, T. viride” value ([9]; medium PDA) of the same molecule?
**A.** >6400 ppm

**Q.** What about the MIC ([10]; medium CDA) of the same molecule?
**A.** < 0.6 µg/mL

**Q.** And the MIC ([10]; medium GA)?
**A.** < 0.6 µg/mL

**Q.** And the MIC ([10]; medium GGA)?
**A.** < 0.6 µg/mL

**Q.** And the MIC ([11]; medium CDA)?
**A.** 10 µg/mL (≈ 44.8 µM)

**Q.** What about the MIC ([11]; medium GA) of the same molecule?
**A.** 20 µg/mL (≈ 89.6 µM)

**Q.** What about the MIC ([11]; medium GGA) of the same molecule?
**A.** 20 µg/mL (≈ 89.6 µM)

**Q.** What about the “MIC value, Cg” value ([12]; medium CDA) of the same molecule?
**A.** ng

**Q.** And the “MIC value, Cg” value ([12]; medium GA)?
**A.** ng

**Q.** And the “MIC value, Cg” value ([12]; medium GGA)?
**A.** ng

**Q.** And the MIC ([13]; medium CDA)?
**A.** 10 µg/mL (≈ 44.8 µM)

**Q.** And the MIC ([13]; medium GA)?
**A.** 20 µg/mL (≈ 89.6 µM)

**Q.** What about the MIC ([13]; medium GGA) of the same molecule?
**A.** 20 µg/mL (≈ 89.6 µM)

**Q.** With Cc1cc(C)nc(Nc2ccccc2)n1 [pyrimethanil, 4,6-dimethyl-N-phenyl-2-pyrimidinamine] as the molecule, how does the “Threshold value, H. grisea” value (Humicola grisea MG 28; medium GA) read?
**A.** 800-1600 ppm

**Q.** And the “Threshold value, H. grisea” value (Humicola grisea MG 28; medium PDA)?
**A.** 1600-3200 ppm

**Q.** What about the “Threshold value, A. niger” value ([2]; medium GA) of the same molecule?
**A.** >6400 ppm

**Q.** What about the “Threshold value, A. niger” value ([2]; medium PDA) of the same molecule?
**A.** >6400 ppm

**Q.** What about the “Threshold value, C. puteana” value ([3]; medium GA) of the same molecule?
**A.** >6400 ppm

**Q.** And the “Threshold value, C. puteana” value ([3]; medium PDA)?
**A.** >6400 ppm

**Q.** What about the “Threshold value, C. versicolor” value ([4]; medium GA) of the same molecule?
**A.** >6400 ppm

**Q.** What about the “Threshold value, C. versicolor” value ([4]; medium PDA) of the same molecule?
**A.** >6400 ppm

**Q.** What about the “Threshold value, C. globosum” value ([5]; medium GA) of the same molecule?
**A.** 800-1600 ppm

**Q.** What about the “Threshold value, C. globosum” value ([5]; medium PDA) of the same molecule?
**A.** >6400 ppm

**Q.** And the “Threshold value, C. cladosporioides” value ([6]; medium GA)?
**A.** 1600-3200 ppm

**Q.** What about the “Threshold value, C. cladosporioides” value ([6]; medium PDA) of the same molecule?
**A.** >6400 ppm

**Q.** And the “Threshold value, A. pullulans” value ([7]; medium GA)?
**A.** 1600-3200 ppm

**Q.** What about the “Threshold value, A. pullulans” value ([7]; medium PDA) of the same molecule?
**A.** >6400 ppm

**Q.** And the “Threshold value, T. sp.” value ([8]; medium GA)?
**A.** >6400 ppm

**Q.** What about the “Threshold value, T. sp.” value ([8]; medium PDA) of the same molecule?
**A.** >6400 ppm

**Q.** What about the “Threshold value, T. viride” value ([9]; medium GA) of the same molecule?
**A.** >6400 ppm

**Q.** What about the “Threshold value, T. viride” value ([9]; medium PDA) of the same molecule?
**A.** >6400 ppm

**Q.** And the MIC ([10]; medium CDA)?
**A.** < 0.6 µg/mL

**Q.** And the MIC ([10]; medium GA)?
**A.** < 0.6 µg/mL

**Q.** What about the MIC ([10]; medium GGA) of the same molecule?
**A.** 20 µg/mL (≈ 100 µM)

**Q.** And the MIC ([11]; medium CDA)?
**A.** > 20 µg/mL

**Q.** And the MIC ([11]; medium GA)?
**A.** > 20 µg/mL

**Q.** What about the MIC ([11]; medium GGA) of the same molecule?
**A.** > 20 µg/mL

**Q.** What about the “MIC value, Cg” value ([12]; medium CDA) of the same molecule?
**A.** ng

**Q.** And the “MIC value, Cg” value ([12]; medium GA)?
**A.** ng

**Q.** And the “MIC value, Cg” value ([12]; medium GGA)?
**A.** ng

**Q.** What about the MIC ([13]; medium CDA) of the same molecule?
**A.** 20 µg/mL (≈ 100 µM)

**Q.** And the MIC ([13]; medium GA)?
**A.** 20 µg/mL (≈ 100 µM)

**Q.** What about the MIC ([13]; medium GGA) of the same molecule?
**A.** 20 µg/mL (≈ 100 µM)
